In patent US10933053B2, “Treating infections with ceftolozane/tazobactam in subjects having impaired renal function” (MERCK SHARP & DOHME CORP., priority 2013, dated 2021):

Columns and labels:
[1] = Binding to human plasma proteins; assay type: in vitro ADME; conditions: human, plasma; value used in Monte Carlo simulation; read-out: unbound fraction (Fu)
[2] = clinical; conditions: both, human, in vivo; for Vd: Vss
Experimental: This was a Phase 1, multicenter, prospective, open-label study of 750 mg ceftolozane/tazobactam (as CXA-201) administered IV in male and female adult subjects with severe renal impairment (estimated CLCR<30 mL/min) and subjects with end-stage renal disease (ESRD) on hemodialysis (HD). The primary objective of the study was to determine the PK profile of ceftolozane/tazobactam in subjects with severe renal impairment and subjects with ESRD on HD and to determine the effect of HD on the clearance of ceftolozane/tazobactam.
Subjects with severe renal impairment received a single IV 1-hour infusion of 750 mg ceftolozane/tazobactam on Day 1. […] Subjects in this cohort received an IV dose of 750 mg ceftolozane/tazobactam as a 1 hour infusion immediately after their first HD session on Day 1 (post dialysis, approximately 72 hours prior to the next HD session) and a second dose of ceftolozane/tazobactam approximately 2 hours before their second HD session on Day 4 of the study. Infusion of ceftolozane/tazobactam was completed approximately 1 hour before the start of HD.
Subjects in both cohorts had urine (if not anuric) and plasma samples collected for determination of levels of ceftolozane, tazobactam and the M1 metabolite of tazobactam; subjects in the ESRD on HD cohort also had dialysate fluid samples collected for PK assessment. Plasma, urine, and dialysate levels of ceftolozane, tazobactam, and its metabolite M1 collected over a prespecified interval were determined by LC/MS/MS assay.
All subjects underwent hemodialysis for 3 to 4 hours using a high-flux membrane (either 1.4, 1.8, or 1.9 m^2) on Days 1, 4, and 6 as scheduled. Average blood flow rate was 264 to 600 mL/min and average dialysis flow rate was either 600 or 800 mL/min for all subjects with ESRD.
All cohorts received ceftolozane/tazobactam as an intravenous infusion over 1 h. The normal, mild, and moderate renal impairment cohorts received a single dose of ceftolozane/tazobactam 1,000 mg/500 mg; the severe renal impairment cohort received a single dose of ceftolozane/tazobactam 500 mg/250 mg; the ESRD cohort received a dose of ceftolozane/tazobactam 500 mg/250 mg initiated at the end of HD on day 1 and another dose initiated 2 h before HD on day 4. Subjects with ESRD underwent HD for 3 to 4 h using a high-flux membrane as scheduled; average dialysis flow rate was 600 to 800 ml/min. Revaclear hemodialyzers (Gambro, Stockholm, Sweden) were used in 5 subjects (ultrafiltration coefficient 50 to 60 ml/h/mmHg, high flux membrane of 1.4 to 1.8 m^2) and a CT 190G hemodialyzers (Baxter Healthcare, McGaw Park, Ill.) was used in 1 subject (ultrafiltration coefficient 36 ml/h/mmHg, high flux membrane of 1.9 m^2). The average blood flow rate was 400 to 600 ml/min with the exception of one subject with rates between 264 and 400 ml/min.
Plasma concentrations of ceftolozane and tazobactam were measured prior to, during, and following administration of ceftolozane/tazobactam. Blood samples were collected 30 min prior to administration, at the end of administration and at 5, 15, and 30 min and 1, 2, 3, 5, 7, 9, 11, 15, 25, and 35 h after completion of ceftolozane/tazobactam administration in the normal, mild, and moderate renal impairment cohorts. Severe renal impairment and ESRD cohorts off HD had samples taken 30 min prior to administration and at 0.5, 1, 1.5, 2, 3, 6, 9, 12, 24, 36, and 48 h after the start of administration. On the day of and following HD, the subjects with ESRD had samples taken 30 min prior to administration and at 0.5, 1, 1.5, 2, 3, 4, 5, 6, 9, 12, 24, 36, and 44 h after the start of the administration. The entire dialysate was collected at each of the following intervals: 0 to 1, 1 to 2, 2 to 3, and 3 h to the end of dialysis. Urine for PK analysis was obtained in the normal, mild, and moderate cohorts at 0 to 2, 2 to 4, 4 to 8, 8 to 12, 12 to 24, and 24 to 36 h after the start of ceftolozane/tazobactam administration.

For `Cn1c(N)c(NC(=O)NCCN)c[n+]1CC1=C(C(=O)O)N2C(=O)[C@@H](NC(=O)/C(=N\OC(C)(C)C(=O)O)c3nsc(N)n3)[C@H]2SC1` [Ceftolozane, (6R,7R)-3-[(5-amino-4-{[(2-aminoethyl)carbamoyl]amino}-1-methyl-1H-pyrazol-2-ium-2-yl)methyl]-7-({(2Z)-2-(5-amino-1,2,4-thiadiazol-3-yl)-2-[(1-carboxy-1-methylethoxy)imino]acetyl}amino)-8-oxo-5-thia-1-azabicyclo[4.2.0]oct-2-ene-2-carboxylate], which fraction unbound [1] is on record?
The fraction unbound was 0.79.

And the AUC [2]?
Its AUC is 87 µg·h/mL.

What about the “AUC48h Ratio (Day 3:1), median (range)” value [2] of the same compound?
Its value is 0.34 (0.26-0.48).

What about the CLss [2] of the same compound?
Its CLss is 5.01 (4.11-10.7) L/hr.

What about the “Change in Concentration” value [2] of the same compound?
The value was 32.3 (10.2-44.8).

What about the Clast [2] of the same compound?
Its Clast is 2.88 (1.23-4.48) μg/mL.

What about the “Clast lower than Cmax” value [2] of the same compound?
Its value is “approximately 14 fold”.

What about the “Cmax, mean (CV %)” value [2] of the same compound?
Its value is 40.9 (35) μg/mL.

And the “Concentration after HD” value [2]?
Its value is 2.9 (1.2-4.5) μg/mL.

And the “Concentration before HD” value [2]?
Its value is 34.4 (13.2-49.3) μg/mL.

What about the “Half-Life, median (range)” value [2] of the same compound?
Its value is 43.2 h.

And the “Percent Removed” value [2]?
Its value is 91.5 (72.3-96.3) %.

And the “Percent Removed, median (range)” value [2]?
The value was 66 (52-74).

What about the “average extraction ratio during HD” value [2] of the same compound?
Its value is 46%.

And the “median Cmax higher vs normal renal function, dose normalized” value [2]?
Its value is 1.2 fold.

And the “rebound peak plasma concentration after HD, of the original Cmax” value [2]?
The value was “approximately 17%”.

What about the “reduction in overall exposure” value [2] of the same compound?
Its value is “approximately 66%”.

What about the “tmax, median (minimum, maximum)” value [2] of the same compound?
Its value is 1.0 (1.0, 1.0) h.

What about the AUC(0-t) ([2]; AUC0-t) of the same compound?
Its AUC(0-t) is 97.1 µg·h/mL.

And the AUC(0-inf) ([2]; AUC0-∞)?
The AUC(0-inf) was 99.8 µg·h/mL.

What about the AUC(0-inf) ([2]; AUC0-∞, median (range)) of the same compound?
The AUC(0-inf) was 1630 µg·h/mL.

And the AUC(0-inf) ([2]; AUC∞, mean (CV %))?
Its AUC(0-inf) is 1680 µg·h/mL.

And the clearance ([2]; CL, mean (CV %))?
Its clearance is 6.67 mL/min.

And the clearance ([2]; CL, median (range))?
The clearance was 5 mL/min.

What about the Cmax [2] of the same compound?
The Cmax was 41100 ng/mL.

And the Cmax ([2]; median (range))?
The Cmax was 44200 ng/mL.

What about the half-life ([2]; Half-Life) of the same compound?
Its half-life is 1.13 h.

And the half-life ([2]; Half-Life, median (range))?
Its half-life is 40.5 h.

And the Vd [2]?
Its Vd is 7.26 L.

And the Vd ([2]; mean (CV %))?
The Vd was 19.2 L.

And the Vd ([2]; median (range))?
Its Vd is 17.9 L.

And the clearance ([2]; median dialysis clearance (CLD))?
Its clearance is 95.8 mL/min.

What about the half-life ([2]; t1/2 during the HD period (median)) of the same compound?
The half-life was 1.13 h.

For `C[C@]1(Cn2ccnn2)[C@H](C(=O)O)N2C(=O)C[C@H]2S1(=O)=O` [Tazobactam, tazobactam], which fraction unbound [1] is on record?
The fraction unbound was 0.7.

What about the AUC [2] of the same compound?
The AUC was 26.4 µg·h/mL.

And the “AUC48h Ratio (Day 3:1), median (range)” value [2]?
Its value is 0.44 (0.26-0.53).

And the CLss [2]?
Its CLss is 8.53 (5.53-15.9) L/hr.

And the “Change in Concentration” value [2]?
Its value is 10.5 (3.6-17.6).

And the Clast [2]?
The Clast was 0.46 (0.13-1.14) μg/mL.

What about the “Clast lower than Cmax” value [2] of the same compound?
The value was roughly 32 fold.

What about the “Concentration after HD” value [2] of the same compound?
The value was 0.5 (0.1-1.1) μg/mL.

And the “Concentration before HD” value [2]?
The value was 10.8 (3.9-18.7) μg/mL.

And the “Half-Life, median (range)” value [2]?
The value was 5.0 (1.9-8.5) hr.

And the “Percent Removed” value [2]?
Its value is 95.3 (83.8-98.6) %.

What about the “Percent Removed, median (range)” value [2] of the same compound?
The value was 56 (47-74).

What about the Tmax [2] of the same compound?
Its Tmax is 1.00 (1.00-1.00) hr.

And the “Tmax, median (range)” value [2]?
The value was 1.0 (1.0-1.0) hr.

And the “average extraction ratio during HD” value [2]?
The value was 53%.

What about the “median Cmax higher vs normal renal function, dose normalized” value [2] of the same compound?
Its value is 2.4 fold.

What about the “median dialysis clearance (CLD)” value [2] of the same compound?
The value was 4.39 (1.36-6.29) L/hr.

And the “rebound peak plasma concentration after HD, of the original Cmax” value [2]?
The value was roughly 6%.

And the “reduction in overall exposure” value [2]?
Its value is roughly 56%.

What about the removed by dialysis [2] of the same compound?
The removed by dialysis was roughly 56%.

And the “t1/2 during the HD period (median)” value [2]?
Its value is 0.91 h.

What about the AUC(0-inf) ([2]; AUC0-∞) of the same compound?
Its AUC(0-inf) is 29.4 µg·h/mL.

What about the AUC(0-inf) ([2]; AUC0-∞, median (range)) of the same compound?
The AUC(0-inf) was 109 µg·h/mL.

What about the clearance ([2]; CL, median (range)) of the same compound?
The clearance was 40 mL/min.

And the Cmax [2]?
The Cmax was 14900 ng/mL.

What about the Cmax ([2]; median (range)) of the same compound?
The Cmax was 20200 ng/mL.

What about the half-life ([2]; Half-Life, median (range)) of the same compound?
Its half-life is 4.21 h.

What about the Vd [2] of the same compound?
Its Vd is 10.4 L.

What about the Vd ([2]; median (range)) of the same compound?
The Vd was 15.2 L.
